Assays:
[1] = system: pAKT(5473) (phosphorylated at serine 473), PC3 cells; assay: In-cell Western assay, pAKT(5473) in PC3 cells; format: cell-based; conditions: Homo sapiens, PC-3, In-cell Western, read-out: pAkt-S473
Experimental: Cells from human prostate cancer cell line PC3 (American Type Culture Collection (ATCC), Manassas, Va. 20108 USA) were seeded at an optimal density of 22,000 cell/well in 96-well plates containing Ham's F12K medium (90 μL) and incubated overnight. The compound dilutions were carried out in 100% DMSO followed by a dilution in the medium. Test compounds were added in serial dilutions to the wells and incubated for 2 h. The cells were washed and fixed with 4% paraformaldehyde. After incubation at room temperature for 1 h in the dark, blocking was done for 2 h at room temperature. Primary antibodies for phosphorylated (p) AKT(5473) (phosphorylated at serine 473), pAKT(T308) (phosphorylated at threonine 308) and for pS6RP(S235/236) (phosphorylated at serine 235/236) (commercially available from Cell Signaling Technology®, whose protocol was followed for the in-cell western assay, were diluted to the required concentration and added to the corresponding wells followed by overnight incubation at 4° C. Eu-labeled rabbit (PE) (Perkin-Elmer USA catalog #AD0106) secondary antibody was added and incubated for 2 h at room temperature. Delfia® enhancement solution (cat #1244-105, Perkin Elmer USA) was subsequently added to the plate before taking the reading at 615 nm with excitation wavelength of 340 nm, after which 0.5 μg/mL of Hoechst® 33258 dye (Catalog #86140-5, Sigma) was added to the plate and fluorescence emission was read at 460 nm with 355 nm excitation, to evaluate the correction factor. IC50 values were calculated using a sigmoidal dose-response curve fit in GraphPad Prism® v5 software.

[2] = biological target: T1, PI3Kα (wild-type), P110/P85α (Homo sapiens, UniProt P42336); assay: PI3 Kinase TR-FRET assay, PI3Kα (wild-type); format: biochemical
T1 construct: made in house; host or cells: SF9 insect cells
T1 sequence (P42336 whole entry): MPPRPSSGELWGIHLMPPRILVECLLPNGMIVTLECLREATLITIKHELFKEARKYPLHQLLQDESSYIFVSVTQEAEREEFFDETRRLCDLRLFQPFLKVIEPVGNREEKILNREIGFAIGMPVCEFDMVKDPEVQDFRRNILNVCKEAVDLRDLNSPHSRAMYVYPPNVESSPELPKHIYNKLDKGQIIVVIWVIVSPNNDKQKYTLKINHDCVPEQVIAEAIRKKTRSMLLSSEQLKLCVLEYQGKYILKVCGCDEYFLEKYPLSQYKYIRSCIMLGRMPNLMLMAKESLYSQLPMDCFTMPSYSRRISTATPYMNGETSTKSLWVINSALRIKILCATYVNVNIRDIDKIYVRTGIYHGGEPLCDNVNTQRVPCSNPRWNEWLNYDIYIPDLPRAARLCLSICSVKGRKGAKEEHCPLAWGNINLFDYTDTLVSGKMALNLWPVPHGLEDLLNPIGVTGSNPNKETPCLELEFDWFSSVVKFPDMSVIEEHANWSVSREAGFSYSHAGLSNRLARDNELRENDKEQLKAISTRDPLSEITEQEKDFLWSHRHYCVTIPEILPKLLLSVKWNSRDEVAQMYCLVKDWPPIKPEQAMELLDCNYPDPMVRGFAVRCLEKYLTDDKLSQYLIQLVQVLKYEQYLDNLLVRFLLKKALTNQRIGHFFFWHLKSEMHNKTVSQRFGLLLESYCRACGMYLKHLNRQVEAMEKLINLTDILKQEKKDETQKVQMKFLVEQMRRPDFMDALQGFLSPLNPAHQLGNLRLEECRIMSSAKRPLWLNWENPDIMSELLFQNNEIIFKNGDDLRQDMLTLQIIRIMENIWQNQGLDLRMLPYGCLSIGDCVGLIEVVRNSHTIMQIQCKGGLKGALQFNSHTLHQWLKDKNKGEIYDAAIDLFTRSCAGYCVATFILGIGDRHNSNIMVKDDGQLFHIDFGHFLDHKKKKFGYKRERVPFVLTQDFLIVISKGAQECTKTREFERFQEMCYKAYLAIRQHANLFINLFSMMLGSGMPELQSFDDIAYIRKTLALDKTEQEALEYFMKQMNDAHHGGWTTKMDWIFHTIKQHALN
T1 sequence (P27986 whole entry partner): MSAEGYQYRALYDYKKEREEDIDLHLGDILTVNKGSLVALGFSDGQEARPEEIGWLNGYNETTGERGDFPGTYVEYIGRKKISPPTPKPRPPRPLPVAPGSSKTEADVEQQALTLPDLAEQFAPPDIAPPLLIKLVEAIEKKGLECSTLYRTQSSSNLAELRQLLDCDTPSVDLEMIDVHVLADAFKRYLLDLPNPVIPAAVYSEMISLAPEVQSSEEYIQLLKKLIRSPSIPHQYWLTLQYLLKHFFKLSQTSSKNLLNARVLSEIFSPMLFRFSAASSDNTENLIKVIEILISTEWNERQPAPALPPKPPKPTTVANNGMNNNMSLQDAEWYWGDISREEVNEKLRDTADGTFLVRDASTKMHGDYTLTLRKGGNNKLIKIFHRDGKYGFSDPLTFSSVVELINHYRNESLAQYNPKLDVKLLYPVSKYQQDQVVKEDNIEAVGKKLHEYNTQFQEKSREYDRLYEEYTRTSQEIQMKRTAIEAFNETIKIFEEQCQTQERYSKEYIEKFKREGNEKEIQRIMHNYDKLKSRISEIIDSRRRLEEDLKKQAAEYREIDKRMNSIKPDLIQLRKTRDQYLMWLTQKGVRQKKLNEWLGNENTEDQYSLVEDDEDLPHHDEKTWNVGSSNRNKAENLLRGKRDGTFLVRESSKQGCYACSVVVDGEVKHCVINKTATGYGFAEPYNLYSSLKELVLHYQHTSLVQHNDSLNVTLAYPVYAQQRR
Procedure, shortened: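 TR-FRET read-out of PIP3 formation via biotin-PIP3 displacement (665/615 nm ratio) gave IC50 curves. Enzyme: 5 ng wild-type P110/P85α from Sf9 cells, 60 min RT with compound and PIP2 (MgCl2 40 mM, DTT 5 mM), then 30 min RT kinase reaction at 10 μM ATP and 10 μM PIP2.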

PC3 cells = assay: XTT assay for cell viability, PC3 cells; format: cell-based, human; conditions: Homo sapiens, PC-3, cell viability
Procedure, shortened: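 PC3 cells seeded at 1000 cells/well, grown 24 h, then exposed to serial dilutions of compound for 96 h. Viability read by XTT dye at 37° C, absorbance 465 nm. EC50 from sigmoidal dose-response fit.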

mTOR kinase = biological target: T2, mTOR kinase (Homo sapiens, UniProt P42345); assay: mTOR kinase TR-FRET assay; format: biochemical; conditions: read-out: mTO R
T2 construct: purchased Millipore, USA
Procedure, shortened: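 TR-FRET read-out (340 nm excitation, 615/665 nm emission) of Thr389 phosphorylation of a ULight-labeled p70 S6K peptide (50 nM) by mTOR, 20 μM ATP, 60 min room temperature after 60 min compound preincubation. Buffer HEPES pH 7.5 with MnCl2, EGTA; IC50 by sigmoidal dose-response.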

[3] = system: pS6RP(S235/236), PC3 cells; assay: In-cell Western assay, pS6RP(S235/236) in PC3 cells; format: cell-based, human; conditions: Homo sapiens, PC-3, In-cell Western
Procedure, shortened: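 Overnight-seeded PC3 cells were treated 2 h with serially diluted compound, then fixed and immunostained with phospho-specific primary antibodies and Eu-labelled secondary. Time-resolved Eu signal read at 615 nm (ex 340 nm), normalised by Hoechst 33258 staining (ex 355/em 460 nm); IC50 from sigmoidal dose-response fit.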

SMILES | IC50 [1] [µM] | IC50 [2] [µM] | IC50 (PC3 cells) [µM] | IC50 (mTOR kinase) [µM] | IC50 [3] [µM]
CN(C)C(=O)c1ccc(NC(=O)Nc2ccc(-c3nc(N4CCOCC4)c4ccc(-c5ccco5)cc4n3)cn2)cc1 [Example 159, 4-(3-(5-(7-(furan-2-yl)-4-morpholino-quinazolin-2-yl)pyridin-2-yl)ureido)-N,N-dimethyl-benzamide] | < 0.1 | < 0.05 | < 0.1 | 0.201 to 10 | 
CN(C)C(=O)c1ccc(NC(=O)Nc2ccc(-c3nc(N4CCOCC4)c4ccc(-c5ccco5)cc4n3)cc2)c(F)c1 [Example 160, 3-fluoro-4-(3-(4-(7-(furan-2-yl)-4-morpholino-quinazolin-2-yl)phenyl)ureido)-N,N-dimethyl-benzamide] | 0.501 to 5 | < 0.05 | < 0.1 | 0.05 to 0.2 | 
CN(C)C(=O)c1ccc(NC(=O)Nc2ccc(-c3nc(N4CCOCC4)c4ccc(-c5ccc(C(C)(C)O)o5)cc4n3)cc2)cc1 [Example 222, 4-(3-(4-(7-(5-(2-hydroxypropan-2-yl)furan-2-yl)-4-morpholino-quinazolin-2-yl)phenyl)ureido)-N,N-dimethyl-benzamide] |  | < 0.05 | 0.201 to 10 | < 0.05 | 0.201 to 10
CN(C)C(=O)c1ccc(NC(=O)Nc2ccc(-c3nc(N4CCOCC4)c4ccc(-c5ccc(C#N)o5)cc4n3)cc2)cc1 [Example 223, 4-(3-(4-(7-(5-cyanofuran-2-yl)-4-morpholino-quinazolin-2-yl)phenyl)ureido)-N,N-dimethyl-benzamide] |  | < 0.05 | 0.201 to 10 | < 0.05 | 0.201 to 10
CC(=O)c1ccc(-c2ccc3c(N4CCOCC4)nc(-c4ccc(NC(=O)Nc5ccc(C(=O)N(C)C)cc5)cc4)nc3c2)o1 [Example 224, 4-(3-(4-(7-(5-acetylfuran-2-yl)-4-morpholino-quinazolin-2-yl)phenyl)ureido)-N,N-dimethyl-benzamide] |  | < 0.05 | 0.201 to 10 | < 0.05 | 0.201 to 10
Cc1noc(C)c1-c1ccc2c(N3CCOCC3)nc(-c3ccc(NC(=O)Nc4ccc(C(=O)N(C)C)c(F)c4)cc3)nc2c1 [Example 246, 4-(3-(4-(7-(3,5-dimethylisoxazol-4-yl)-4-morpholino-quinazolin-2-yl)phenyl)ureido)-2-fluoro-N,N-dimethyl-benzamide] |  | 0.05 to 0.2 | 0.201 to 10 | < 0.05 | 0.201 to 10
CN(C)C(=O)c1ccc(NC(=O)Nc2ccc(-c3nc(N4CCOCC4)c4ccc(CO)cc4n3)cc2)cc1 [Example 285, 4-(3-(4-(7-(hydroxymethyl)-4-morpholino-quinazolin-2-yl)phenyl)ureido)-N,N-dimethyl-benzamide] |  | < 0.05 | < 0.1 | < 0.05 | 0.201 to 10
CN(C)C1CCN(C(=O)c2ccc(NC(=O)Nc3ccc(-c4nc(N5CCOCC5)c5ccc(C(C)(C)O)cc5n4)cc3)cc2)CC1 [Example 286, 1-(4-(4-(dimethylamino)piperidine-1-carbonyl)phenyl)-3-(4-(7-(2-hydroxypropan-2-yl)-4-morpholino-quinazolin-2-yl)phenyl)urea] |  | < 0.05 | 0.201 to 10 | < 0.05 | 0.201 to 10

More lines, now with the values ahead:

IC50 [1] [µM] | IC50 [2] [µM] | IC50 (PC3 cells) [µM] | IC50 (mTOR kinase) [µM] | IC50 [3] [µM] | SMILES
< 0.1 | < 0.05 | 0.201 to 10 | < 0.05 |  | CN(C)C(=O)c1ccc(NC(=O)Nc2ccc(-c3nc(N4CCOCC4)c4ccc(-c5ccccn5)cc4n3)cc2)cc1 [Example 155, N,N-dimethyl-4-(3-(4-(4-morpholino-7-(pyridin-2-yl)quinazolin-2-yl)phenyl)ureido)-benzamide]
 | < 0.05 | 0.201 to 10 | < 0.05 | 0.201 to 10 | CN(C)C(=O)c1ccc(NC(=O)Nc2ccc(-c3nc(N4CCOCC4)c4ccc(-c5cncnc5)cc4n3)c(F)c2)cc1 [Example 237, 4-(3-(3-fluoro-4-(4-morpholino-7-(pyrimidin-5-yl)quinazolin-2-yl)phenyl)ureido)-N,N-dimethyl-benzamide]
 | < 0.05 | 0.201 to 10 | < 0.05 | 0.201 to 10 | CN(C)C(=O)c1ccc(NC(=O)Nc2ccc(-c3nc(N4CCOCC4)c4ncc(-c5cnn(C)c5)cc4n3)c(F)c2)cc1 [Example 238, 4-(3-(3-fluoro-4-(7-(1-methyl-1H-pyrazol-4-yl)-4-morpholino-pyrido[3,2-d]pyrimidin-2-yl)phenyl)ureido)-N,N-dimethyl-benzamide]
 | < 0.05 | 0.201 to 10 | 0.05 to 0.2 | 0.201 to 10 | CN(C)C(=O)c1ccc(NC(=O)Nc2ccc(-c3nc(N4CCOCC4)c4ccc(-c5cccnc5F)cc4n3)c(F)c2)cc1 [Example 241, 4-(3-(3-fluoro-4-(7-(2-fluoropyridin-3-yl)-4-morpholino-quinazolin-2-yl)phenyl)ureido)-N,N-dimethyl-benzamide]
 | < 0.05 | 0.201 to 10 | < 0.05 | 0.201 to 10 | COc1ncc(-c2ccc3c(N4CCOCC4)nc(-c4ccc(NC(=O)Nc5ccc(C(=O)N(C)C)cc5)cc4F)nc3c2)cn1 [Example 242, 4-(3-(3-fluoro-4-(7-(2-methoxypyrimidin-5-yl)-4-morpholino-quinazolin-2-yl)phenyl)ureido)-N,N-dimethyl-benzamide]
 | < 0.05 | 0.201 to 10 | < 0.05 | 0.201 to 10 | CN(C)C(=O)c1ccc(NC(=O)Nc2ccc(-c3nc(N4CCOCC4)c4ccc(-c5cccnc5)cc4n3)c(F)c2)cc1 [Example 243, 4-(3-(3-fluoro-4-(4-morpholino-7-(pyridin-3-yl)quinazolin-2-yl)phenyl)ureido)-N,N-dimethyl-benzamide]
 | < 0.05 | 0.201 to 10 | < 0.05 | 0.201 to 10 | CN(C)C(=O)c1ccc(NC(=O)Nc2ccc(-c3nc(N4CCOCC4)c4ncc(-c5cccnc5F)cc4n3)c(F)c2)cc1 [Example 244, 4-(3-(3-fluoro-4-(7-(2-fluoropyridin-3-yl)-4-morpholino-pyrido[3,2-d]pyrimidin-2-yl)phenyl)ureido)-N,N-dimethyl-benzamide]
 | 0.05 to 0.2 | 0.201 to 10 | 0.05 to 0.2 | 0.201 to 10 | CN(C)C(=O)c1ccc(NC(=O)Nc2ccc(-c3nc(N4CCOCC4)c4ccc(-c5ccco5)cc4n3)c(F)c2)cc1 [Example 247, 4-(3-(3-fluoro-4-(7-(furan-2-yl)-4-morpholino-quinazolin-2-yl)phenyl)ureido)-N,N-dimethyl-benzamide]
0.501 to 5 | < 0.05 | 0.201 to 10 | < 0.05 |  | CN(C)C(=O)c1ccc(NC(=O)Nc2ccc(-c3nc(N4CCOCC4)c4ccc(-c5ccccn5)cc4n3)cc2)cc1F [Example 267, 2-fluoro-N,N-dimethyl-4-(3-(4-(4-morpholino-7-(pyridin-2-yl)quinazolin-2-yl)phenyl)ureido)-benzamide]
0.501 to 5 | < 0.05 | 0.201 to 10 | < 0.05 |  | CN(C)C(=O)c1ccc(NC(=O)Nc2ccc(-c3nc(N4CCOCC4)c4ccc(-c5ccccn5)cc4n3)c(F)c2)cc1 [Example 268, 4-(3-(3-fluoro-4-(4-morpholino-7-(pyridin-2-yl)quinazolin-2-yl)phenyl)ureido)-N,N-dimethyl-benzamide]
 | 0.201 to 10 | 0.201 to 10 | 0.05 to 0.2 | 0.201 to 10 | CN(C)C(=O)c1ccc(NC(=O)Nc2ccc(-c3nc(N4CCOCC4)c4ccc(-c5cccnc5NCCO)cc4n3)cc2)cc1 [Example 283, 4-(3-(4-(7-(2-((2-hydroxyethyl)amino)pyridin-3-yl)-4-morpholine-quinazolin-2-yl)phenyl)ureido)-N,N-dimethyl-benzamide]
